According to ChEMBL document CHEMBL4616670, “Phosphine Oxides from a Medicinal Chemist's Perspective: Physicochemical and in Vitro Parameters Relevant for Drug Discovery” (J Med Chem, 2020):
Converted amounts (≈) assume the structure as drawn.

What was measured:
physchem [1] = settings: octanol/water, pH 2
Description: Octanol/water partition coefficient, log D of the compound at pH 2

physchem [2] = settings: octanol/water, pH 11
Description: Octanol/water partition coefficient, log D of the compound at pH 11

in vitro [3] = settings: human, liver microsomes
Description: Half life in human liver microsomes at 1 uM incubated prior to NADPH addition by LC-MS/MS analysis

in vitro [4] = settings: human, liver microsomes; remark: listed apart in the source
Description: Stability in human liver microsomes at 1 uM incubated prior to NADPH addition by LC-MS/MS analysis relative to hepatic blood flow

physchem [5] = settings: pH 6.8 buffer
physchem [6] = settings: pH 6.8 buffer; remark: listed apart in the source
in vitro [7] = settings: human, Caco-2
Description: Permeability across apical to basolateral side in human Caco2 cells measured up to 2 hrs by LC-MS/MS analysis or scintillation counting method

in vitro [8] = settings: human, Caco-2; remark: listed apart in the source
Description: Efflux ratio of permeability in human Caco2 cells measured up to 2 hrs by LC-MS/MS analysis or scintillation counting method

in vitro [9] = settings: human, plasma
Description: Protein binding in human plasma

[10] = Equilibrium thermodynamic aqueous solubility of the compound in pH 2 buffer incubated for 24 hrs by UV-spectroscopy based shake flask method; assay type: physicochemical; settings: read-out: Therm_solubility
[11] = 168 h
Description: Chemical stability of the compound in MeOH/NH3 solution at pH >10 assessed as compound decomposition measured after 7 days by UV-RP-HPLC analysis

physchem [12] = settings: MeOH/HCl solution
Description: Chemical stability of the compound in MeOH/HCl solution at pH <1 assessed as compound decomposition measured after 7 days by UV-RP-HPLC analysis

[13] = Chemical stability of the compound in MeOH/HCl solution at pH <1 assessed as compound decomposition measured after 1 day by UV-RP-HPLC analysis; assay type: physicochemical; settings: read-out: Drug degradation
[14] = Acid dissociation constant, pKa of the compound by UV absorption spectra analysis or potentiometric titration technique; assay type: physicochemical
[15] = Equilibrium thermodynamic aqueous solubility of the compound in pH 5.9 buffer incubated for 24 hrs by UV-spectroscopy based shake flask method; assay type: physicochemical; settings: read-out: Therm_solubility
[16] = 24 h
Description: Chemical stability of the compound in MeOH/NH3 solution at pH >10 assessed as compound decomposition measured after 1 day by UV-RP-HPLC analysis

[17] = Basic dissociation constant, pKb of the compound by UV absorption spectra analysis or potentiometric titration technique; assay type: physicochemical
[18] = Acid dissociation constant, pKa1 of the compound by UV absorption spectra analysis or potentiometric titration technique; assay type: physicochemical
[19] = Acid dissociation constant, pKa2 of the compound by UV absorption spectra analysis or potentiometric titration technique; assay type: physicochemical
[20] = Equilibrium thermodynamic aqueous solubility of the compound in pH 2.3 buffer incubated for 24 hrs by UV-spectroscopy based shake flask method; assay type: physicochemical; settings: read-out: Therm_solubility
[21] = Chemical stability of the compound in MeOH/H2O solution at pH >10 assessed as compound decomposition measured after 1 day by UV-RP-HPLC analysis; assay type: physicochemical; settings: read-out: Drug degradation
[22] = Equilibrium thermodynamic aqueous solubility of the compound in pH 2.1 buffer incubated for 24 hrs by UV-spectroscopy based shake flask method; assay type: physicochemical; settings: read-out: Therm_solubility

Compound | logD (physchem [1]) | half-life at 1 µM (in vitro [3]) [h] | hepatic extraction ratio at 1 µM (in vitro [4]) | solubility thermodynamic at 24 h (physchem [5]) [µg/mL] | solubility thermodynamic at 24 h (physchem [6]) [µg/mL] | Papp A→B at 2 h (in vitro [7]) [×10⁻⁶ cm/s] | efflux ratio at 2 h (in vitro [8]) | degraded at 168 h (physchem [12]) [%] | logD (physchem [2]) | Drug degradation [11] [%] | further results
O=P1(c2ccc(C(F)(F)F)cc2)NCCCN1 |  | > 2.17 | < 0.23 | > 61 | 12300 (≈ 46.6 mM) | 42 | 0.7 |  | 1.1 | < 10 | degraded at 24 h [13]: > 90%
CP(=O)(O)c1ccc(C(F)(F)F)cc1 | 1.3 | > 2.17 | < 0.23 | > 49 |  | < 5 |  | < 10 | -1.3 | < 10 | pKa [14]: 2; solubility thermodynamic at 24 h [15]: > 8900 µg/mL
O=P1(c2ccc(C(F)(F)F)cc2)NCCCO1 (stereo not given) | 2 | > 2.17 | < 0.23 | > 60 |  | 57 | 0.7 |  | 1.3 |  | degraded at 24 h [13]: > 90%; Drug degradation [16]: > 90%
CN1CCN(C)P1(=O)c1ccc(C(F)(F)F)cc1 |  |  |  | > 64 | > 30000 |  |  |  | 2 | < 10 | degraded at 24 h [13]: > 90%
CC1(C)COP(=O)(c2ccc(C(F)(F)F)cc2)OC1 | 3.1 | > 2.17 | < 0.23 | > 67 | 2800 (≈ 9.52 mM) | 73 | 0.6 | < 10 | 2.6 |  | Drug degradation [16]: > 90%
CC(C)N1CCP(=O)(c2ccc(C(F)(F)F)cc2)CC1 | 0.2 | > 2.17 | < 0.23 | > 68 | 23000 (≈ 75.3 mM) | 84 | 0.5 | < 10 | 2 | < 10 | pKb [17]: 7
CN1CCCOP1(=O)c1ccc(C(F)(F)F)cc1 (stereo not given) | 2.5 | > 2.17 | < 0.23 | 53 (≈ 0.19 mM) | 7500 (≈ 26.9 mM) | 64 | 0.5 |  | 1.9 | < 10 | degraded at 24 h [13]: > 90%
O=C(O)c1ccc(C(F)(F)F)cc1 |  | > 2.17 | < 0.23 | > 48 | > 10000 | 15 | 1.3 |  |  |  | pKa [14]: 3.5
O=P(O)(O)c1ccc(C(F)(F)F)cc1 | 0.6 |  |  | > 54 |  |  |  | < 10 | < -1.6 | < 10 | pKa [18]: < 2; pKa [19]: 6.8; solubility thermodynamic at 24 h [20]: 17800 µg/mL (≈ 78.7 mM)
O=P1(c2ccc(C(F)(F)F)cc2)OCCNCCO1 | 0.5 | > 2.17 | < 0.23 | 66 (≈ 0.224 mM) | > 10000 | 63 | 0.7 | < 10 | 1.5 |  | pKb [17]: 6; degraded at 24 h [21]: 20%
CN1CCCN(C)P1(=O)c1ccc(C(F)(F)F)cc1 | 3 | > 2.17 | < 0.23 | > 68 | 11100 (≈ 38 mM) | 81 | 0.5 |  | 2.7 | < 10 | degraded at 24 h [13]: > 90%
O=P1(c2ccc(C(F)(F)F)cc2)OCCCO1 | 2.1 | > 2.17 | < 0.23 | > 66 | 8800 (≈ 33.1 mM) | 95 | 0.4 | < 10 | 1.5 | 70 | Drug degradation [16]: > 90%
O=P1(c2ccc(C(F)(F)F)cc2)CCNCC1 | 0 | > 2.17 | < 0.23 | > 61 | 28000 (≈ 106 mM) | 13 | 1.1 | < 10 | 0.5 | < 10 | pKb [17]: 6.9

More lines, main results first:

logD (physchem [1]) | half-life at 1 µM (in vitro [3]) [h] | hepatic extraction ratio at 1 µM (in vitro [4]) | solubility thermodynamic at 24 h (physchem [5]) [µg/mL] | solubility thermodynamic at 24 h (physchem [6]) [µg/mL] | Papp A→B at 2 h (in vitro [7]) [×10⁻⁶ cm/s] | efflux ratio at 2 h (in vitro [8]) | degraded at 168 h (physchem [12]) [%] | Compound | logD (physchem [2]) | Drug degradation [11] [%] | further results
0.4 | > 2.17 | < 0.23 | 77 (≈ 0.168 mM) | 20 (≈ 0.0437 mM) | 0.1 | 16 |  | Cc1ccc(NC(=O)c2ccc(P(C)(C)=O)cc2)cc1Nc1nccc(-c2cccnc2)n1 | 1.5 |  | fraction unbound (in vitro [9]): 0.163
1.3 | > 2.17 | < 0.23 | > 60 |  |  |  | < 10 | COP(=O)(O)c1ccc(C(F)(F)F)cc1 |  | < 10 | solubility thermodynamic at 24 h [10]: 27300 µg/mL (≈ 114 mM)
1.5 | 0.283 | 0.7 | 1 (≈ 0.00193 mM) | < 1 | 18 | 1.6 |  | CCOP(=O)(OCC)c1ccc(C(=O)Nc2ccc(C)c(Nc3nccc(-c4cccnc4)n3)c2)cc1 | 2.8 |  | fraction unbound (in vitro [9]): 0.019
0.4 | > 2.17 | < 0.23 | > 115 | 700 (≈ 1.52 mM) | < 0.3 |  |  | Cc1ccc(NC(=O)c2ccc(P(=O)(O)O)cc2)cc1Nc1nccc(-c2cccnc2)n1 | -1 |  | fraction unbound (in vitro [9]): 0.021
 |  |  | > 63 |  |  |  | < 10 | O=P(O)(OCCO)c1ccc(C(F)(F)F)cc1 |  | < 10 | solubility thermodynamic at 24 h [22]: > 28500 µg/mL
1 | > 2.17 | < 0.23 | > 122 | 1100 (≈ 2.25 mM) | < 0.1 |  |  | CCOP(=O)(O)c1ccc(C(=O)Nc2ccc(C)c(Nc3nccc(-c4cccnc4)n3)c2)cc1 | -0.6 |  | fraction unbound (in vitro [9]): 0.046
0.6 | > 2.17 | < 0.23 | > 115 | > 10000 | < 0.1 |  |  | Cc1ccc(NC(=O)c2ccc(P(C)(=O)O)cc2)cc1Nc1nccc(-c2cccnc2)n1 | -0.6 |  | fraction unbound (in vitro [9]): 0.119
1.9 | > 2.17 | < 0.23 | > 64 |  | 10 | < 0.1 | < 10 | CCOP(=O)(O)c1ccc(C(F)(F)F)cc1 | -0.8 | < 10 | solubility thermodynamic at 24 h [22]: 280000 µg/mL (≈ 1100 mM)
